Laboratory results: patent publication US8227240B2, “Systems for screening pharmaceutical chemicals” (The Washington University, priority 2001, dated 2012)

What was measured:
[1] = test system: ring tissue model; assay: Contractile force developed by ring sample during tissue development (matrix remodeling and compression); assay type: cell-based; settings: Cytochalasin D 2 μM
Protocol: The contractile force developed by the ring sample during matrix remodeling and compression can be measured by connecting the ring to the force measuring apparatus as described above within about 1-2 hours after collagen gelation. The cells begin to exert a force on the matrix after this time. Then the increase of force during tissue development (remodeling and compression) is observed over time.
Maximum force is typically reached within 15 to 20 hours. This process was also disrupted by several inhibitors as illustrated in FIGS. 18(b)-(d).

[2] = test system: bio-artificial tissues (F-actin network); assay: Tissue indentation device: force-time and longitudinal force-strain curves (Example 15); assay type: cell-based
Protocol: Bio-artificial tissues were generated by mixing cells and neutralized collagen, as described elsewhere (Wakatsuki et al., 2000, Biophys. J. 79:2353-2368). Briefly, cells were mixed with neutralized rat-tail collagen (Millipore Billerica, Mass.) and media containing 10% Fetal Bovine Serum (FBS). 200-250[…]1 of this solution is poured into wells as described below. The tissues are cultured in Dulbecco's modified Eagle's medium (DMEM) supplemented with 10% FBS and antibiotics (penicillin and streptomycin) in an incubator for two or three days. The bio-artificial tissue membrane was stretched using a mechanical testing device is (as detailed below). During the mechanical measurements, culture medium was switched to a HEPES-buffered DMEM, pH 7.4, and maintained at 37° C.
A chamber to hold 8 bio-artificial tissues was machined from a polycarbonate bar (25×60×10 mm) using a tabletop CNC mill (Sherline Products Inc., Vista, Calif.). The 8 square wells of 8×8 mm contained 2 horizontal stainless-steel (medical grade) bars (1 mm diameter) which centers were located 2 mm above bottom and 2 mm beside each wall and were 4 mm apart (FIG. 29A). A microscope cover-slip (No. 1 thickness, Fisher brand) sealed the bottom of wells using silicon glue (Dow chemicals) to facilitate microscopic imaging of cells and bio-artificial tissues. […]
The mechanical testing device is depicted in FIG. 29A. […] The linear actuators were controlled simultaneously by a personal computer that also recorded the signal generated by the force transducer. […]
While the force-probe indents the bio-artificial tissues vertically at a constant rate, ν (0.5 mm/sec), an isometric force transducer connected to the force probe recorded a resistance force, F(t). A time dependent change in bio-artificial tissues-membrane force in the longitudinal direction, T(t), was calculated from F(t) by a trigonometric relationship (FIG. 28). This rate of indentation was determined to achieve a minimum noise-level by the current device arrangement. […]

In the case of `C=C1[C@@H](C)[C@H]2[C@H](Cc3ccccc3)NC(=O)[C@]23[C@H](OC(C)=O)/C=C/[C@@](C)(O)C(=O)[C@@H](C)C/C=C/[C@H]3[C@@H]1O` [CD, cytochalasin D], the “development of force during ring tissue development” value [1] is reported as “completely abolished”, the “pre-force σ0A (minimum force) compared to untreated control” value ([2]; 90 nM CD) is reported as “reduced levels” and the “resistance force F(t) while stretching the membrane” value ([2]; 90 nM and 2 μM CD) is reported as “less resistance force”. For the same compound, the “pre-force σ0A (minimum force) compared to untreated control” value ([2]; 2 μM CD) was “reduced levels”.
